Assay results published in US20240350456A1, “COMPOSITIONS AND METHODS FOR DIAGNOSING AND TREATING INFLAMMATORY CONDITIONS” (RUTGERS, THE STATE UNIVERSITY OF NEW JERSEY, priority 2023, published 2024).
“Also recorded” adds a separate entry of the source.

Tests used:
[1] = system: polarized human Caco-2-BBE cells; assay: Nitric oxide production in polarized Caco-2-BBE cells; format: cell-based; details: 24 h exposure, 5% LGG supernatant or single metabolites
Description: Lastly, NOS2 activity was analyzed in cells treated with an LGG supernatant (orange bar, FIG. 15).

ZO-1 (Tjp1) and Ocln = assay: Intestinal organoids treated with LPS and metabolites: tight junction (TJ) expression, RT-qPCR and immunostaining; format: cell-based, mouse
Description: (§1) Intestinal organoids were isolated as previously described (Das et al., 2015; Pearce et al., 2018). Briefly, crypts were isolated from small intestine of conventional house C57BL/6 male mice (Taconic Laboratories, Hudson, NY) by shaking in isolation buffer (2 mM EDTA in PBS), then, crypts were harvested, processed, and suspended in crypt culture medium (CCM), which consisted of advanced DMEM/F12 (Life Technologies, Carlsbad, CA) supplemented with serum-free B27 (1:50; Life Technologies), N2 (1:100; Life Technologies), N-acetylcysteine (1 mM; Sigma-Aldrich, St. Louis, MO), recombinant murine epithelial growth factor (EGF, 50 ng/ml; Peprotech, Rocky Hill, NJ), Noggin (100 ng/ml; Peprotech), R-Spondin (500 ng/ml; Peprotech), Glutamax-I supplement (1:100; Life Technologies), penicillin/streptomycin (500 μg/ml; Life Technologies), and HEPES ([…]; Life Technologies). Crypts were resuspended in 70% Matrigel (density ˜450 crypts per dome, 2 domes per well in 24-well plate) and allowed to solidify at 37° C. for 20 min. CCM (1.5 mL) was then added to each well. Cultures were incubated in a humidified incubator at 37° C., and CCM was changed daily. Intestinal organoid treatment with LPS and metabolites
(§2) We had 2 series of metabolite-treated organoid experiments, i.e., 1) organoid from conventional C57BL6 mice and 2) Ocln KO and littermate WT control as a gift from Prof. Jerrold Turner (Harvard University). […] Seeding is designated as day 0. On day 3 of culture, the existing media in the wells were completely removed before adding treatments. LPS (1 μg/mL) with or without metabolites, i.e., IPA (0.1 mM) (Li et al., 2021), IAM (200 μM) (Vyhlidalova et al., 2020), MNA (12 ng/ml) (Liu et al., 2015), CARN (20 mM) (Boldyrev et al., 2013) or ASA (1 μM) (Erez et al., 2011) were each added in CCM at known physiological concentrations, incubated for 48 hours, thereafter, organoid was harvested for RNA extraction, and paraformaldehyde fixation for immunostaining.
(§3) Total RNA was extracted from the intestinal organoids using a commercially available kit (RNeasy Microkit; Qiagen, MD, Cat. #74004) following manufacturer's instructions. mRNA samples were converted to cDNA using Bio-Rad's iScript Reverse Transcription Supermix for RT-qPCR (Bio-Rad Laboratories, Hercules, CA, Cat. #1708840). cDNA was then used for RT-qPCR (Mx3000P. Stratagene, La Jolla, CA) to analyze several genes using Maxima SYBR Green qPCR Master Mix (Thermo Fisher Scientific, Waltham, MA) and primers (Integrated DNA Technologies, Coralville, IA). Thermal profile for three-step cycling was 10 min at 95° C. for initial denaturation; then 40 cycles of 15 sec at 95° C. for denaturation, 30 sec at 65° C. for annealing, and 30 sec at 75° C. for extension. Primers used are as follows: β-actin (Actb), forward 5′-[…]-3′ (SEQ ID NO: 5), reverse 5′-[…]-3′ (SEQ ID NO: 6); ZO-1 (Tjp1), forward 5′-[…]-3′ (SEQ ID NO: 7), reverse 5′-[…]-3′ (SEQ ID NO: 8), Ocln, forward 5′-[…]-3′ (SEQ ID NO: 9), reverse 5′-[…]-3′ (SEQ ID NO: 10); Lyz1, forward 5′-ATGGCTACCGTGGTGTCAAG-3′ (SEQ ID NO: 11), reverse 5′-CGGTCTCCACGGTTGTAGTT-3′ (SEQ ID NO: 12); Tff3, forward 5′-TAATGCTGTTGGTGGTCCTG-3′ (SEQ ID NO: 13), reverse 5′-CAGCCACGGTTGTTACACTG-3′ (SEQ ID NO: 14). All samples were normalized to β actin expression. Gene expression levels are depicted as fold change relative to the control group.
(§4) Immunocytochemistry followed earlier work (Pearce et al., 2018). Briefly, organoids were extracted from Matrigel by using cell recovery solution (Corning, Cat. No. 354253), processed then fixed in 4% paraformaldehyde for 15 min and dehydrated with 70% ethanol and kept in 4° C. until embedded in paraffin. On the day of embedding, organoids were gently spun down to a pellet (250 g for 5 min), then the supernatant was removed, the pellet resuspended in agarose and embedded in paraffin. […]

[2] = system: mouse intestinal organoids; assay: Organoid permeability assay with 4 kDa FITC-dextran, LPS with or without metabolites; format: cell-based; details: ex vivo organoids
Description: as §1, §2
Permeability assays followed earlier work (Pearce et al., 2018). Briefly, all media were removed and then organoid were incubated with CCM containing 4 kDa FITC-dextran (Sigma-Aldrich, St. Louis, MO, Cat. #46944) at a final concentration of 1.25 µM for 30 minutes at 37° C. and at 5% CO2. […] A fluorescent microscope (Nikon Eclipse TI, NY) at a 10× magnification was used to observe and capture the fluorescence within the lumen of the organoids. Using the same area as the lumen, three different background samples are measured randomly around the lumen. The three background samples measured are averaged and then subtracted from the measured fluorescence of the lumen. […] The quantification of the fluorescence was conducted using the ImageJ 1.53 (NIH, Bethesda, MD).

[3] = system: Tff3 and Lyz1 (goblet and Paneth cells); assay: Organoids: goblet and Paneth cell transcripts (Tff3, Lyz1) and cell numbers; format: cell-based, mouse; details: enteroids
Description: as §2, §3, §4

[4] = system: human-derived Caco-2 cells; assay: In vitro transwell screening in Caco-2 cells, barrier disrupted by Clostridium difficile toxin (TEER and FITC-dextran permeability); format: cell-based; details: applied in the basolateral compartment, TOX
[5] = system: C57BL/6 mice with DSS-induced mild colitis; assay: DSS induced mild colitis treatment with LGG metabolites (2.5% DSS); format: in vivo, mouse; details: metabolite i.p. twice
Description: FIG. 13A-13M. IPA requires Ocln to alleviate LPS-induced leaky epithelium. FIG. 13A, experimental design. Organoids were derived from tamoxifen-inducible, intestine-specific Ocln-knockout (KO) mice generated by crossing a floxed Ocln^fl/fl with Villin-CreERT2 mice. FIG. 13B, Representative images and FIG. 13C, quantitative analysis of permeability assay. LPS was added to CCM media (basolateral side) with and without IPA […] and IAM (200 μM) (n=3 mice). *** P<0.001, compared with WT control, †P<0.05 compared with KO-control. FIG. 13D, Representative images of immunofluorescent staining of Ocln in WT control and Ocln KO conventional mice, L=lumen. MNA improves but ASA exacerbates dextran sodium sulfate (DSS)-induced leaky gut. FIG. 13E, experimental design, evaluation in vivo of metabolites (Met). Methylnicotinamide (MNA. […]) and L-argininosuccinate (ASA. 3.6 mg/kg) were administered (i.p.) twice 1-day before and 3 days after DSS treatment p.o. 4 kDa fluorescein isothiocyanate (FITC)-dextran was gavaged 4 h before sacrifice. FIG. 13F, body weight of DSS-treated mice with and without metabolites, FIG. 13G, representative images of Ocln-stained colon sections (green; left panel) and ECad (red; middle). Merged images (yellow; right panel) depict Ocln location in TJ of MNA-treated but not in DSS-only and ASA-treated colon (arrows). Quantitative fluorescent intensity of Ocln (FIG. 13H) and ECad (FIG. 13I) in the TJ, relative to DSS only controls. FIG. 13J, DSS scoring. FIG. 13K, representative H&E images of DSS, DSS+ MNA and DSS+ASA colon sections. FIG. 13L, In vivo permeability as determined by fluorescent intensity of FITC in serum. FIG. 13M, Serum level of interleukin-6.
DSS induced mild colitis treatment with LGG metabolites. To assess in vivo impact of metabolites on gut barrier function, conventional C57BL/6 mice (8 weeks of age) were administered with 2.5% dextran sodium sulfate (DSS) in drinking water to induce mild colitis. Animals were intraperitoneal injected with either PBS vehicle, 30 mg/kg methylnicotinamide chloride, or 3.6 mg/kg argininosuccinic acid dissolved in sterile PBS at Day-1 and Day 4 of the experiment. Body weight was recorded daily. At Day 7, 4 hours before sacrifice and collection of blood, animals were gavaged with 600 mg/kg with 4 kDa FITC-dextran. Blood was collected in 5% EDTA and subsequently centrifuged at 3000 g for 5 minutes for plasma collection. FITC readings were collected by diluting 25 μl of plasma in 75 μl of PBS and analyzed using a Glomax (Promega, GMMTE9032) with Ex490/Em510-570 filter cube module. Serum concentration of interleukin-6 (Cat. No. Biolegend 431304) was also determined. Ileum and colon sections were collected, fixed in 4% paraformaldehyde, processed for embedding in paraffin wax. Pathohistology of intestine was observed by routine H&E staining.

[6] = system: leaky gut mouse model (DSS colitis); assay: DSS (3%) leaky gut colitis mouse model, metabolites i.p.; format: in vivo; details: 3% DSS; i.p. every other day; listed as ASA
Description: A moderate amount of DSS (3%) creates a leaky gut model.
FIG. 23A, Analysis of plasma ovalbumin levels after oral ovalbumin gavage in mice treated with exogenous MNA or PBS. […] Analysis of fecal lipocalin levels in mice treated with PBS or MNA with or without DSS. […] Representative histology sections of mice treated with PBS or MNA with or without DSS. FIG. 23D, quantification of mouse histology sections scored for colitis index.
FIG. 24A, Analysis of zonula occludens (Tjp1) and occluding (Ocln) mRNA levels after treatment with PBS or MNA with or without DSS. FIG. 24B, Western blot analysis and quantification of Ocln protein levels after treatment with PBS or MNA with or without DSS. FIG. 24C, Quantified levels of occluding in the ileum (top) and colon (bottom) using immunofluorescence antibody staining.
Administration of DSS induces experimental colitis and disrupts gut barrier in vivo in animal models.
Exogenous MNA administration was assessed by plasma ovalbumin levels after oral ovalbumin gavage—an accepted method to determine permeability of the gut paracellular pathway. […] (FIG. 23B) Histology sections of mice treated with or without DSS and PBS or MNA were also obtained. […] Sections from several mice were also examined by a blinded observer and scored for colitis index.
(FIG. 24B) Using immunofluoresce antibody staining, quantified levels of occludin in the ileum and colon were also analyzed.

ileal transcriptome = assay: Germ-free mice monocolonized with LGG, trp+ or trp− diet: bulk RNA-sequencing of ileum; format: in vivo, mouse
Description: Gnotobiotic study. After 5 days of acclimatization under GF conditions, two cages of GF mice (n=10) were fed with a trp-free diet and another 2 cages with a trp-sufficient diet. Purified diets were sterilized by double-irradiation (Research Diets, New Brunswick, NJ) then stored in −80° C. Two weeks afterward, five mice from the trp-deficient and five from trp-sufficient were gavaged with LGG and the remaining mice with sterile PBS. Body weight and food intake were recorded weekly. Fecal pellets were collected aseptically one week before, then one and three weeks post inoculation, then stored (−80° C.) for later analysis. Feces were also collected twice a week then analyzed immediately to monitor gnotobiotic status. All mice were sacrificed three weeks post inoculation, then serum, liver, ileum and colon collected.
For LGG colonization, one cage of GF trp− mice and one cage of GF trp+ were orally gavaged with 200 μl of LGG (10^8 CFU/ml) in sterile PBS (LGG trp− and LGG trp+, respectively) while control GF received 200 μl sterile PBS (PBS trp− and PBS trp+).
Total RNA was isolated from mouse ileum then purified with RNeasy Plus universal kit (Qiagen, Hilden, Germany) following manufacturer's instructions. […] For global assessment of mouse RNA levels, total RNA was subjected to two rounds of poly(A) selection using oligo (dT) 25 magnetic beads (New England Biolabs [NEB], Ipswich, MA). Illumina-compatible RNA-seq libraries were constructed using the NEBNext Ultra II RNA library prep with sample purification beads (Cat. No. E7775) and NEB Next Multiplex Oligos for Illumina (dual index primers set 1; Cat. No. E7600) according to the manufacturer's instructions. Poly(A) selection and library quality were assessed using TapeStation 2200 (Agilent Technologies, Santa Clara, CA), and libraries were quantified using Qubit 4.0 fluorometer (Thermo Fisher, Waltham, MA). The prepared libraries were sequenced on an Illumina NextSeq 500 instrument (Illumina, San Diego, CA). CLC Genomics Workbench version 20.0.4 (Qiagen, Venlo, Netherlands) was used for RNA-seq analysis. […]

N=C(N)NCCC[C@H](N)C(=O)O [Arginine]
NO production (fluorescence intensity) [1]: NO production increases

NCCC(=O)N[C@@H](Cc1cnc[nH]1)C(=O)O [Carnosine, carnosine]
gene expression of Ocln (ZO-1 (Tjp1) and Ocln; ex vivo, in the presence of the barrier disruptor): increased gene expression of Ocln | TJ expression at the protein and mRNA levels (ZO-1 (Tjp1) and Ocln; in the presence of LPS (1 μg/mL), 48 hr): increased TJ expression | disruption of the gut barrier, fluorescence microscopy (FIG. 11M) [2]: prevented disruption of the gut barrier | goblet and Paneth cell transcripts and cell numbers [3]: reduced goblet and Paneth cell transcripts as well as cell numbers

O=Cc1c[nH]c2ccccc12 [Indole-3-carboxaldehyde]
TEER, indole metabolites [4]: more effective when applied in this compartment than in the luminal

NC(=NCCC[C@H](N)C(=O)O)N[C@@H](CC(=O)O)C(=O)O [L-arginino-succinate, L-argininosuccinic acid]
TJ expression (ZO-1 (Tjp1) and Ocln; metabolite alone, 48 hr): significantly reduced TJ expression | DSS-induced leaky gut (overall) [5]: exacerbates | E-cad abundance and localization in colonic epithelial cells [5]: appeared dispersed | Ocln expression in colonic epithelium [5]: reduction in Ocln expression | body weight ([5]; vs DSS alone): greater tendency to lose weight | disruption of the gut barrier, fluorescence microscopy (FIG. 11M) [2]: disrupted the gut | body weight loss and recovery in DSS leaky gut model [6]: exacerbated the effects of DSS, and significantly delayed recovery; also recorded: exacerbates weight loss

N[C@@H](Cc1c[nH]c2ccccc12)C(=O)O [Tryptophan]
number of ileal transcripts affected by dietary trp (ileal transcriptome; GF mice): 3917 | number of ileal transcripts affected by dietary trp (ileal transcriptome; LGG mono-associated mice): 5315 | number of transcripts affected solely by dietary trp with or without LGG (ileal transcriptome; mouse, in vivo): 1496

NC(=O)NCCC[C@H](N)C(=O)O [citrulline]
NO production (fluorescence intensity) [1]: NO production increases
